Laboratory results as given in patent US20210401776A1, “METHOD OF TREATING […] SYNDROMES USING FENFLURAMINE ENANTIOMERS” (ZOGENIX INTERNATIONAL LIMITED, priority 2018, published 2021).
“Also recorded” adds a separate entry of the source.

Legend:
dizocilpine-treated mice [1] = experiment: step-through passive avoidance, dizocilpine-induced amnesia model; type: in vivo, Male Swiss OF-1 mice
dizocilpine-treated mice [2] = experiment: spontaneous alternation in the Y-maze, dizocilpine-induced amnesia model; type: in vivo, Male Swiss OF-1 mice
[3] = tested on: homozygous scn1Lab−/− mutants; experiment: zebrafish locomotor assay (total distance in large movements, lardist); type: in vivo, zebrafish (Danio rerio); conditions: scn1Lab−/− mutants; for reduction in seizure behavior: fixed concentration, FIG. 3
Source text: (Baraban et al, 2013). Additional phenotypes of these mutants include: abnormal optokinetic response (OKR; 5 dpf); darkened pigmentation; death by 14 dpf; spontaneous seizure-like activity; abnormal (forebrain electrographic activity (3-7 dpf); seizure activity; lower levels of serotonin in scn1lab^−/− head homogenates at 7 dpf; zebrafish express orthologs of human serotonin (5HT) receptor subtypes at 5 dpf; nighttime hyperactivity (5 dpf); in open field-increased thigmotaxis. decreased movement (at 5 dpf); no differences in GABAergic neurons compared to wild type (5 dpf); 5-HT2a (hitr2aa/b) and S-HT2c; (htr2c11) orthologs expressed in larval heads in wild-type and scn1lab−/− mutants and in adult wild-type brains.
To assay the locomotor activity of homozygous scn1Lab−/− mutants and control WT scn1Lab+/+, zebrafish larvae were placed one larva per well in a 96-well plate in 100 μL of embryo medium from 4 to 8 days post-fertilization (dpf). Each day the larvae are tracked in an automated tracking device (ZebraBox™ apparatus; Viewpoint, Lyon, France) for 10 min after 30 min habituation (100-second integration interval). All recordings were performed at the same time during daytime period. The total distance in large movements was recorded and quantified using ZebraLab™ software (Viewpoint, Lyon, France). Data was pooled together from at least three independent experiments with at least 24 larvae per condition.
Scn1Lab^−/− mutants and WT scn1Lab+/+ larvae are arrayed in the same plate and treated at 6 days post fertilization (dpf) with the test compounds (25 μM), or VHC in individual wells of a 96-well plate. After incubation at 28° C. on a 14/10 hour light/dark cycle and 30-min chamber habituation 6 and 7 dpf larvae are tracked for locomotor activity for 10 min (100-second integration interval) under dark conditions. An incubation time of 1.5 hours is further referred to as short treatment (6 dpf). Furthermore, these larvae are analyzed after more than 22 hours incubation (7 dpf), i.e. long treatment. The total locomotor activity is quantified using the parameter lardist and plotted in cm. Data for each compound is pooled together from multiple independent experiments with at least 9 larvae per treatment condition.

[4] = tested on: homozygous scn1Lab−/− mutants; experiment: epileptiform activity, open-field recordings in larval forebrain (LFP assay); type: in vivo, zebrafish (Danio rerio); conditions: for LFP Assay: Table 1, 25, 59 and 100 μM, oral via embryo medium

Cl.O=C(OCCN1CCOCC1)C1(c2ccccc2)CCCCC1 [PRE-084, 2-(4-Morpholinethyl)-1-phenylcyclohexanecarboxylate hydrochloride]
PP (%) (dizocilpine-treated mice [1]; Table 2 StepThrough/Passive Avoidance, drug alone 0.1 mg/kg IP): 4.9 ± 9.9%
PP (%) (dizocilpine-treated mice [1]; Table 2 StepThrough/Passive Avoidance, drug alone 0.3 mg/kg IP): 34.6 ± 10.5 ^3%
PP (%) (dizocilpine-treated mice [1]; Table 3 StepThrough/PassiveAvoidance, drug alone 0.1 mg/kg IP): 7.6 ± 12.4%
PP (%) (dizocilpine-treated mice [1]; Table 3 StepThrough/PassiveAvoidance, drug alone 0.3 mg/kg IP): 25.2 ± 9.8 ^3%
PP (%) (dizocilpine-treated mice [1]; Table 4 StepThrough/PassiveAvoidance, drug alone 0.1 mg/kg IP): 8.8 ± 11.0%
PP (%) (dizocilpine-treated mice [1]; Table 4 StepThrough/PassiveAvoidance, drug alone 0.3 mg/kg IP): 38.9 ± 10.4 ^3%
PP (%) (dizocilpine-treated mice [2]; Table 2 Y-Maze, drug alone 0.1 mg/kg IP): 6.6 ± 12.8%
PP (%) (dizocilpine-treated mice [2]; Table 2 Y-Maze, drug alone 0.3 mg/kg IP): 40.5 ± 9.2 ^1%
PP (%) (dizocilpine-treated mice [2]; Table 3 Y-Maze, drug alone 0.1 mg/kg IP): 15.4 ± 10.9%
PP (%) (dizocilpine-treated mice [2]; Table 3 Y-Maze, drug alone 0.3 mg/kg IP): 32.6 ± 8.9 ^1%
PP (%) (dizocilpine-treated mice [2]; Table 4 Y Maze, drug alone 0.1 mg/kg IP): 17.2 ± 13.8%
PP (%) (dizocilpine-treated mice [2]; Table 4 Y Maze, drug alone 0.3 mg/kg IP): 27.0 ± 9.5 ^1%

Dehydroepiandrosterone sulfate [DHEAS]
PP (%) (dizocilpine-treated mice [1]; Table 5 STPA, DHEAS alone 5 mg/kg sc): 19.1 ± 10.7%
PP (%) (dizocilpine-treated mice [1]; Table 5 STPA, DHEAS alone 10 mg/kg sc): 47.2 ± 12.8%
PP (%) (dizocilpine-treated mice [1]; Table 5 STPA, DHEAS alone 20 mg/kg sc): 40.3 ± 13.3^4%
PP (%) (dizocilpine-treated mice [2]; Table 5 YMT, DHEAS alone 5 mg/kg sc): 18.4 ± 9.7%
PP (%) (dizocilpine-treated mice [2]; Table 5 YMT, DHEAS alone 10 mg/kg sc): 29.8 ± 7.4%
PP (%) (dizocilpine-treated mice [2]; Table 5 YMT, DHEAS alone 20 mg/kg sc): 57.9 ± 11.0^1%

pregnenolone sulfate [PREGS]
PP (%) (dizocilpine-treated mice [1]; Table 6 STPA, PREGS alone 5 mg/kg sc): 4.4 ± 16.3%
PP (%) (dizocilpine-treated mice [1]; Table 6 STPA, PREGS alone 10 mg/kg sc): 21.0 ± 14.6%
PP (%) (dizocilpine-treated mice [1]; Table 6 STPA, PREGS alone 20 mg/kg sc): 26.0 ± 19.1 ^4%
PP (%) (dizocilpine-treated mice [2]; Table 6 YMT, PREGS alone 5 mg/kg sc): 3.5 ± 17.6%
PP (%) (dizocilpine-treated mice [2]; Table 6 YMT, PREGS alone 10 mg/kg sc): 52.4 ± 12.2%
PP (%) (dizocilpine-treated mice [2]; Table 6 YMT, PREGS alone 20 mg/kg sc): 72.1 ± 12.4 ^1%

CC(N)Cc1cccc(C(F)(F)F)c1 (single isomer, unassigned; (+)) [(+)-Norfenfluramine]
antiseizure activity in the zebrafish locomotor assay [3]: more efficacious than (−)-norfenfluramine
reduction in seizure behavior [3]: 80%
LFP Assay [4]: Less effective than (+)-FFA;

CC(N)Cc1cccc(C(F)(F)F)c1 (single isomer, unassigned; (-)) [(−)-Norfenfluramine]
reduction in seizure behavior [3]: 45%
anti-epileptiform activity (frequency and cumulative duration of epileptiform events over 10 minutes) ([4]; 50 micromolar, FIGS. 4 and 5): less efficacious than (+)- and (−)-fenfluramine; also recorded: comparable
LFP Assay [4]: Inactive
